According to ChEMBL document CHEMBL4382204 (Eur J Med Chem, 2018):
Calls of active or inactive are those of the source. The calls are words filed in the database; no cut-off is given here.

Tests used:
[1] = target: Macrophage colony-stimulating factor 1 receptor (Homo sapiens) (UniProt P07333); assay: Inhibition of wild type C-terminal FLAG-tagged human TEL fused CSF1R (unknown origin) transfected in mouse BAF3 cells assessed as growth inhibition after 72 hrs by CCK8 assay; format: cell-based
[2] = target: Vascular endothelial growth factor receptor 2 (Homo sapiens) (UniProt P35968); assay: Inhibition of wild type C-terminal FLAG-tagged human TEL fused VEGFR2 (unknown origin) transfected in mouse BAF3 cells assessed as growth inhibition after 72 hrs by CCK8 assay; format: cell-based
[3] = target: Platelet-derived growth factor receptor alpha (Homo sapiens) (UniProt P16234); assay: Inhibition of wild type C-terminal FLAG-tagged human TEL fused PDGFRalpha (unknown origin) transfected in mouse BAF3 cells assessed as growth inhibition after 72 hrs by CCK8 assay; format: cell-based
[4] = target: Platelet-derived growth factor receptor beta (Homo sapiens) (UniProt P09619); assay: Inhibition of wild type C-terminal FLAG-tagged human TEL fused PDGFRbeta (unknown origin) transfected in mouse BAF3 cells assessed as growth inhibition after 72 hrs by CCK8 assay; format: cell-based
[5] = target: Fibroblast growth factor receptor 3 (Homo sapiens) (UniProt P22607); assay: Inhibition of wild type C-terminal FLAG-tagged human TEL fused FGFR3 (unknown origin) transfected in mouse BAF3 cells assessed as growth inhibition after 72 hrs by CCK8 assay; format: cell-based
[6] = target: Ephrin type-A receptor 2 (Homo sapiens) (UniProt P29317); assay: Inhibition of wild type C-terminal FLAG-tagged human TEL fused EPHA2 (unknown origin) transfected in mouse BAF3 cells assessed as growth inhibition after 72 hrs by CCK8 assay; format: cell-based
[7] = target: Cytoplasmic tyrosine-protein kinase BMX (Homo sapiens) (UniProt P51813); assay: Inhibition of wild type C-terminal FLAG-tagged human TEL fused BMX (unknown origin) transfected in mouse BAF3 cells assessed as growth inhibition after 72 hrs by CCK8 assay; format: cell-based
[8] = target: Discoidin domain-containing receptor 2 (Homo sapiens) (UniProt Q16832); assay: Inhibition of BCR fused DDR2 (unknown origin) transfected in mouse BAF3 cells assessed as growth inhibition after 72 hrs by CCK8 assay; format: cell-based
MEG-01 = assay: Antiproliferative activity in human MEG01 cells after 72 hrs by CCK8 assay; format: functional; conditions: MEG-01, 72 h
[9] = Antiproliferative activity in CHO cells after 72 hrs by CCK8 assay; format: cell-based, Cricetulus griseus; conditions: chinese hamster
[10] = target: T1, Bcr/Abl fusion protein (Homo sapiens) (UniProt P00519+P11274); assay: Inhibition of BCR/ABL in human K562 cells assessed as inhibition of STAT5 phosphorylation up to 0.3 uM after 1 hr by immunoblotting analysis; format: cell-based
[11] = target: T1, Bcr/Abl fusion protein (Homo sapiens); assay: Inhibition of BCR/ABL in human K562 cells assessed as inhibition of ErK phosphorylation up to 0.3 uM after 1 hr by immunoblotting analysis; format: cell-based
[12] = target: T1, Bcr/Abl fusion protein (Homo sapiens); assay: Inhibition of BCR/ABL in human MEG01 cells assessed as inhibition of CrkL phosphorylation up to 0.3 uM after 1 hr by immunoblotting analysis; format: cell-based
Bcr/Abl fusion protein [13] = target: T2, Bcr/Abl fusion protein (Homo sapiens, UniProt P00519, T315I); assay: Inhibition of BCR/ABL T315I mutant (unknown origin) expressed in mouse BAF3 cells assessed as inhibition of STAT5 phosphorylation after 1 hr by immunoblotting analysis; format: cell-based
Bcr/Abl fusion protein [14] = target: T2, Bcr/Abl fusion protein; assay: Inhibition of BCR/ABL T315I mutant (unknown origin) expressed in mouse BAF3 cells assessed as inhibition of ErK phosphorylation after 1 hr by immunoblotting analysis; format: cell-based
KU812 cell line = assay: Induction of apoptosis in human KU812 cells assessed as cleaved PARP level up to 0.3 uM after 24 hrs by immunoblotting analysis; format: functional, cell-based
BaF3 [15] = assay: Induction of apoptosis in mouse BAF3 cells expressing BCR/ABL T315I mutant assessed as cleaved caspase-3 level up to 0.3 uM after 24 hrs by immunoblotting analysis; format: functional, cell-based
[16] = Cmax in mouse at 1 mg/kg, iv by LC-MS/MS analysis; format: ADME, organism-based; set-up: dose 1 mg/kg, route intravenous; conditions: in vivo
[17] = AUC (0 to t) in mouse at 1 mg/kg, iv by LC-MS/MS analysis; format: ADME, organism-based; conditions: in vivo
[18] = Apparent volume of distribution during terminal phase in mouse at 1 mg/kg, iv by LC-MS/MS analysis; format: ADME, organism-based; conditions: in vivo, read-out: Vz
[19] = Apparent volume of distribution during terminal phase in mouse at 10 mg/kg, po by LC-MS/MS analysis; format: ADME, organism-based; conditions: in vivo
[20] = Apparent clearance during terminal phase in mouse at 1 mg/kg, iv by LC-MS/MS analysis; format: ADME, organism-based; conditions: in vivo
[21] = MRT (0 to t) in mouse at 1 mg/kg, iv by LC-MS/MS analysis; format: ADME, organism-based; conditions: in vivo
[22] = Tmax in Sprague-Dawley rat at 10 mg/kg, po by LC-MS/MS analysis; format: ADME, organism-based; conditions: in vivo
[23] = Cmax in Sprague-Dawley rat at 1 mg/kg, iv by LC-MS/MS analysis; format: ADME, organism-based; set-up: dose 1 mg/kg, route intravenous; conditions: in vivo
[24] = AUC (0 to t) in Sprague-Dawley rat at 10 mg/kg, po by LC-MS/MS analysis; format: ADME, organism-based; conditions: in vivo
[25] = AUC (0 to infinity) in Sprague-Dawley rat at 10 mg/kg, po by LC-MS/MS analysis; format: ADME, organism-based; set-up: dose 10 mg/kg, time infinity, route oral; conditions: in vivo
[26] = Apparent volume of distribution during terminal phase in Sprague-Dawley rat at 10 mg/kg, po by LC-MS/MS analysis; format: ADME, organism-based; conditions: in vivo
[27] = Apparent clearance during terminal phase in Sprague-Dawley rat at 1 mg/kg, iv by LC-MS/MS analysis; format: ADME, organism-based; conditions: in vivo
[28] = Toxicity in nu/nu mouse allografted with mouse BAF3 cells expressing BCR/ABL T315I mutant at 25 to 50 mg/kg, po administered daily via gavage for 14 days; format: organism-based; conditions: in vivo, 336 h
[29] = Toxicity in nu/nu mouse allografted with mouse BAF3 cells expressing BCR/ABL T315I mutant assessed as effect on body weight at 25 to 50 mg/kg, po administered daily via gavage for 14 days; format: organism-based; conditions: in vivo, 336 h
BaF3 [30] = assay: Antitumor activity against mouse BAF3 cells expressing BCR/ABL T315I mutant allografted in nu/nu mouse assessed as tumor growth inhibition at 25 mg/kg, po administered via gavage for 14 days relative to control; format: functional; conditions: 336 h, read-out: TGI
[31] = target: T3, Tyrosine-protein kinase ABL1 (Homo sapiens, UniProt P00519); assay: Inhibition of active wild type His-tagged ABL (229 to 500 residues) (unknown origin) expressed in baculovirus infected sf9 cells using ABLtide as substrate after 1 hr by ADP-Glo assay
[32] = target: Tyrosine-protein kinase ABL1 (Homo sapiens, UniProt P00519, T315I); assay: Inhibition of inactive wild type His-tagged ABL T315I mutant (229 to 500 residues) (unknown origin) expressed in baculovirus infected sf9 cells assessed as reduction in autophosphorylation preincubated for 60 mins followed by ATP addition measured after 8 hrs by ADP-Glo assay
[33] = target: T3, Tyrosine-protein kinase ABL1; conditions: BaF3
Description: Inhibition of wild type C-terminal FLAG-tagged human TEL fused ABL (unknown origin) transfected in mouse BAF3 cells assessed as growth inhibition after 72 hrs by CCK8 assay

Sequence of Macrophage colony-stimulating factor 1 receptor (Homo sapiens) (P07333 whole entry, the tested form may be a part): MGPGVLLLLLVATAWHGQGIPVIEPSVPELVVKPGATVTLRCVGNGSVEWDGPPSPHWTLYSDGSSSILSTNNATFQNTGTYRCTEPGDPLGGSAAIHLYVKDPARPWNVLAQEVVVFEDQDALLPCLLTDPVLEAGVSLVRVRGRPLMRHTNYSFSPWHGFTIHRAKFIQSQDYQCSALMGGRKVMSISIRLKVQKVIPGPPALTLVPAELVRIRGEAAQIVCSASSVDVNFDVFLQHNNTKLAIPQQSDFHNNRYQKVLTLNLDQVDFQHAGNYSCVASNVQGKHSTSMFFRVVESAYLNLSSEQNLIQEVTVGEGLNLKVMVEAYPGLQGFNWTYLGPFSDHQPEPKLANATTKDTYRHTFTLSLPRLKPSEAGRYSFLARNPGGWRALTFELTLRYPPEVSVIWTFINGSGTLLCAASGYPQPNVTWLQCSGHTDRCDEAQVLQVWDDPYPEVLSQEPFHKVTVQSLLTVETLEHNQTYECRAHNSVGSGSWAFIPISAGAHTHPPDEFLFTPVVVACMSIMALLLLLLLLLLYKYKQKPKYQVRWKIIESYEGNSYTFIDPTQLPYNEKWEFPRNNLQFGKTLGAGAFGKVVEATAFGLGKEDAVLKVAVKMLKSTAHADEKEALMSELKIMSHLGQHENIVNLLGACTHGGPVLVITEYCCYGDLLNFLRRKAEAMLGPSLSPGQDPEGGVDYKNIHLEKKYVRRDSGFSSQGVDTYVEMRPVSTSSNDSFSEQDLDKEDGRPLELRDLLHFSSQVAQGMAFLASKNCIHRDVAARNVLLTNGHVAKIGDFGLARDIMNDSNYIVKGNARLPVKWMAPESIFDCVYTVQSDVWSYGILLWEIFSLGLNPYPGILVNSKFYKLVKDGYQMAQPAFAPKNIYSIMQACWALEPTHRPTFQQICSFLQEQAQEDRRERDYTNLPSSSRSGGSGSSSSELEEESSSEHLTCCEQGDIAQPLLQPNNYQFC
Sequence of Discoidin domain-containing receptor 2 (Homo sapiens) (Q16832 whole entry, the tested form may be a part): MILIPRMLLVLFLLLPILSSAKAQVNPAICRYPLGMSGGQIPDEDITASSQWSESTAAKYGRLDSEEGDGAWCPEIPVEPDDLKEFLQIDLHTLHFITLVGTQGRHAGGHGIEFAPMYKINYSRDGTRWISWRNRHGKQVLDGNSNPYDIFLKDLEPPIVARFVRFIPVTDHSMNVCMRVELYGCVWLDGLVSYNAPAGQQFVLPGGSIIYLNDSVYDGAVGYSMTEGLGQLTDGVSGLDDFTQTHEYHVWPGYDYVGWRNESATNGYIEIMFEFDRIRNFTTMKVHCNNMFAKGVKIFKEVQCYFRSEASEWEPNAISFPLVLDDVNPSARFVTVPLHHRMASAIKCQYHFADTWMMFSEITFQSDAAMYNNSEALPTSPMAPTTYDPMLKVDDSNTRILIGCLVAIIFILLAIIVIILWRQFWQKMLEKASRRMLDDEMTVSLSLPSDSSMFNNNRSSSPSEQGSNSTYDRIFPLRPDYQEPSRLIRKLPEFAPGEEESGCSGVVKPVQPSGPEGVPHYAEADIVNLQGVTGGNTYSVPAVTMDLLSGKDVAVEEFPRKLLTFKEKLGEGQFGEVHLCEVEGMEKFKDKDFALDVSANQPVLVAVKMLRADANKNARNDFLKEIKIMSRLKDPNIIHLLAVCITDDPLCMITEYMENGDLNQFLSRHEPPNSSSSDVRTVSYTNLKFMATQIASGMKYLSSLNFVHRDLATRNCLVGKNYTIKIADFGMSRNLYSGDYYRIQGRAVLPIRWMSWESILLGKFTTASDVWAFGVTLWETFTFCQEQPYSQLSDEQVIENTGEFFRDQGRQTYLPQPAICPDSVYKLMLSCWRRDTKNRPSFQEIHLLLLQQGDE
Sequence of Vascular endothelial growth factor receptor 2 (Homo sapiens) (P35968 whole entry, the tested form may be a part): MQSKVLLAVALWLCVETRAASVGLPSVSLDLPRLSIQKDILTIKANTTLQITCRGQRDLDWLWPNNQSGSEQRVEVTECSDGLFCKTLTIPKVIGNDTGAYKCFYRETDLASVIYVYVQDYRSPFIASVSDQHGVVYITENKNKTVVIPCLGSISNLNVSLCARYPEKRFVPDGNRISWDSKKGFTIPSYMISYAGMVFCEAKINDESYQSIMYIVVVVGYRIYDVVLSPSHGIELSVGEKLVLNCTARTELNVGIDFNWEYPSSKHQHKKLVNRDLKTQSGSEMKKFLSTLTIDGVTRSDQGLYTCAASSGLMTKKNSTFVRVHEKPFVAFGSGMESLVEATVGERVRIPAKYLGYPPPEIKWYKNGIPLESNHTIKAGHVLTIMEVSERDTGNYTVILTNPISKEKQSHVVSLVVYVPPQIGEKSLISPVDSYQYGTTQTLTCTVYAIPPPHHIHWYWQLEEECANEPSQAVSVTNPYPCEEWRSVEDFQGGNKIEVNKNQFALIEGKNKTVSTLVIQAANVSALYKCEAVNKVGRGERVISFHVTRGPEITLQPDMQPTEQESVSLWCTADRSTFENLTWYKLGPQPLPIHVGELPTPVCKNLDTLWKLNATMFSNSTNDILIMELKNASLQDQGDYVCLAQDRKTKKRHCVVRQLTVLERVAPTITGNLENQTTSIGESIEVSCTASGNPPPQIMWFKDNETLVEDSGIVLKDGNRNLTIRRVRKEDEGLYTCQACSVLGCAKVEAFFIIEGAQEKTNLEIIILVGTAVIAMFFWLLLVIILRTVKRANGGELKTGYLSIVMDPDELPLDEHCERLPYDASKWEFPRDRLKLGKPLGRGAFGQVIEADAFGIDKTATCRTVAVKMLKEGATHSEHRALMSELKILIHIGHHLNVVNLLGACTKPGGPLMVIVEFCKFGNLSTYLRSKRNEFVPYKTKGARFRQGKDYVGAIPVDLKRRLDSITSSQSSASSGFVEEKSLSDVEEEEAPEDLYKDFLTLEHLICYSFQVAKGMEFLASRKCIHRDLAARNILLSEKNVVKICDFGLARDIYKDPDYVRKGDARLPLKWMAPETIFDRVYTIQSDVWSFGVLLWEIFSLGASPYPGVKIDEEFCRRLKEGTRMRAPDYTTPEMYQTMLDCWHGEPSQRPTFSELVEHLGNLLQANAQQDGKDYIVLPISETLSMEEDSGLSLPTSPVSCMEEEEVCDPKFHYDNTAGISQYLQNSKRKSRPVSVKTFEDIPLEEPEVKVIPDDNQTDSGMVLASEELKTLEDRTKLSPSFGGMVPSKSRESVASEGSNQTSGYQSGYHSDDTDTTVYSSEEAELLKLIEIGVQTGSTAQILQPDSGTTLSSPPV
Sequence of Fibroblast growth factor receptor 3 (Homo sapiens) (P22607 23-806 limits assumed): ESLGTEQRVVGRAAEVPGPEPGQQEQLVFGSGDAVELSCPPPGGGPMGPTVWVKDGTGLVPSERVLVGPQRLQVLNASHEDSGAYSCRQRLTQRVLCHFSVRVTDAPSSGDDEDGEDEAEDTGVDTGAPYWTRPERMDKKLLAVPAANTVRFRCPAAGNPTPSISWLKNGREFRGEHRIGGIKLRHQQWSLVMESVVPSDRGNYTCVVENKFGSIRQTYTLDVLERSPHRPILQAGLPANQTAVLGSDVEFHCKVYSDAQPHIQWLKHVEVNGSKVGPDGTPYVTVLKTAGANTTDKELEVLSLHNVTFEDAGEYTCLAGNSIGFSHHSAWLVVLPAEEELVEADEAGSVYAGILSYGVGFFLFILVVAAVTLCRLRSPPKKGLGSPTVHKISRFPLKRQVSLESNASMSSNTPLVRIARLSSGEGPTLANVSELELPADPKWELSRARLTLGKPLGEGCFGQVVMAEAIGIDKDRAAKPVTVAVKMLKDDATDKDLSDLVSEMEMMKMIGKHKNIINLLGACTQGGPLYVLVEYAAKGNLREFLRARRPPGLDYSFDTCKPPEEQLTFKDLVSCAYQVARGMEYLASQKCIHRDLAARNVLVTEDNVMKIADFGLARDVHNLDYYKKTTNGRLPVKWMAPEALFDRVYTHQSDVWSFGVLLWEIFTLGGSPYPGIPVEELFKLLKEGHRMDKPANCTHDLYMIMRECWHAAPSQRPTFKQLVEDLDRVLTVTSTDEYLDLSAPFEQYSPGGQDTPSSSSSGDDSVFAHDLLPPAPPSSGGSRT
Sequence of Ephrin type-A receptor 2 (Homo sapiens) (P29317 whole entry, the tested form may be a part): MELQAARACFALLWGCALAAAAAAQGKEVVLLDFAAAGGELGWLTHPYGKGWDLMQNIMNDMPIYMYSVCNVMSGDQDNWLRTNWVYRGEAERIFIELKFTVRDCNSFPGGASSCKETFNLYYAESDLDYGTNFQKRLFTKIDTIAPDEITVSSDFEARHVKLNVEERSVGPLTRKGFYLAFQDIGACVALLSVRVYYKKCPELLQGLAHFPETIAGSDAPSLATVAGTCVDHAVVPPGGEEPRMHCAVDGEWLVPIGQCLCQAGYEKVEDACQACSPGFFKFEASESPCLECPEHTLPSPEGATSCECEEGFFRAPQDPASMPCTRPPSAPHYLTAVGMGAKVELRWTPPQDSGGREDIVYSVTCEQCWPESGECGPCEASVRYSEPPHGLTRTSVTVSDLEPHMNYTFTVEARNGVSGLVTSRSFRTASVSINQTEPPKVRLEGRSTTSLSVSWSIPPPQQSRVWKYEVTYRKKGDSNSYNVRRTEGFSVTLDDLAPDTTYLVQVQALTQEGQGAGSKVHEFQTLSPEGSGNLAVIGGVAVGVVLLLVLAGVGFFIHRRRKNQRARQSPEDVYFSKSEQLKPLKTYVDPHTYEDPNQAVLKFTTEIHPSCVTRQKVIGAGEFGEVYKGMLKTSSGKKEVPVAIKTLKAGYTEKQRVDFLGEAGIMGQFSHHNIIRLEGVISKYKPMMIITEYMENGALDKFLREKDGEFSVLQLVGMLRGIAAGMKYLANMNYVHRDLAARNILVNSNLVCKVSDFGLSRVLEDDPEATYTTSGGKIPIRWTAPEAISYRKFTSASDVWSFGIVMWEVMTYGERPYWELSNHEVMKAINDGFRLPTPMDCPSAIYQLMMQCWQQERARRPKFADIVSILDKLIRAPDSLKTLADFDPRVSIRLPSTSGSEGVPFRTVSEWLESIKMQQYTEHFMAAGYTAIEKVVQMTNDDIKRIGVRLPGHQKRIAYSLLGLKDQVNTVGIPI

## CN1CCN(Cc2ccc(NC(=O)CCSc3ccc4c(/C=C/c5ccccn5)n[nH]c4c3)cc2C(F)(F)F)CC1
[1]
  GI50: < 1 nM
[2]
  GI50: 2 nM
[3]
  GI50: 2 nM
[4]
  GI50: 8 nM
[5]
  GI50: 73 nM
[6]
  GI50: 120 nM
[7]
  GI50: 2340 nM
[8]
  GI50: 1540 nM
MEG-01
  GI50: 1 nM
[9]
  GI50 at 72 h: 1120 nM
[10]
  inhibition: Active
[11]
  inhibition: Active
[12]
  inhibition: Active
Bcr/Abl fusion protein [13]
  EC50: < 10 nM
Bcr/Abl fusion protein [14]
  EC50: < 10 nM
KU812 cell line
  Activity: Active
BaF3 [15]
  Activity: Active
[16]
  Cmax: 525 ng/mL
[17]
  AUC(0-t): 148 ng·h/mL
[18]
  Vd: 45.3 L/kg
[19]
  Vz: 124.9 L/kg
[20]
  CLz/F: 103 mL/min/kg
[21]
  MRT last: 1.7 h
[22]
  Tmax: 3.3 h
[23]
  Cmax: 1270 ng/mL
[24]
  AUC(0-t): 210 ng·h/mL
[25]
  AUC(0-inf): 266 ng·h/mL
[26]
  Vz: 139.1 L/kg
[27]
  CLz/F: 85 mL/min/kg
[28]
  Activity: Non-Toxic
[29]
  Activity: Non-Toxic
BaF3 [30]
  inhibition in vivo at 25 mg/kg: 29%
[31]
  IC50: 17 nM
[32]
  IC50: 0.2 nM
[33]
  GI50: < 1 nM
